Measured values published in ChEMBL document CHEMBL6182930, “Discovery of TBK1Molecular Glue Degraders as a Potential Strategy for the Treatment of Autosomal Dominant Polycystic Kidney Disease (ADPKD)” (J Med Chem, 2025).
Active and inactive are the calls of the source. The calls are words filed in the database; no cut-off is given here.

Tests used:
[1] = target: E3 ubiquitin-protein ligase RNF126/Serine/threonine-protein kinase TBK1 (Homo sapiens, UniProt Q9UHD2+Q9BV68); assay: Molecular glue activity at RNF126/TBK1 in HEK293T cells assessed as induction of TBK1 degradation incubated for 16 hrs by Western blot analysis; type: cell-based
[2] = tested on: Mus musculus; assay: Anti-inflammatory activity in PKD1 knockout ADPKD (Pkd1 flox/flox; Ksp-Cre) C57BL/6 mouse model assessed as decrease in TNF-alpha level in kidney at 5 mg/kg, SC administered from postnatal day 6 and measured on postnatal day 12 by RT-qPCR analysis; type: functional, organism-based; conditions: time 7.0 day
[3] = tested on: Kidney; assay: Ex vivo inhibition of renal cystogenesis in wild type C57BL/6 mouse kidney assessed as suppression of 8-Br-cAMP-induced cyst development at 100 nM treated for 6 days by imaging analysis; type: functional, tissue-based; conditions: time 6.0 day
[4] = AUC (0 to infinity) in rat at 10 mg/kg, po measured after 24 hrs by LC-MS/MS analysis; type: ADME, organism-based; conditions: in vivo
[5] = target: T1, Serine/threonine-protein kinase TBK1 (Homo sapiens, UniProt Q9UHD2); assay: Inhibition of TBK1-dependent SEAP reporter gene expression in LPS-stimulated human THP1-Blue ISG cells incubated for 24 hrs by QUANTI-Blue reagent based analysis; type: cell-based
T1 sequence (Q9UHD2 whole entry): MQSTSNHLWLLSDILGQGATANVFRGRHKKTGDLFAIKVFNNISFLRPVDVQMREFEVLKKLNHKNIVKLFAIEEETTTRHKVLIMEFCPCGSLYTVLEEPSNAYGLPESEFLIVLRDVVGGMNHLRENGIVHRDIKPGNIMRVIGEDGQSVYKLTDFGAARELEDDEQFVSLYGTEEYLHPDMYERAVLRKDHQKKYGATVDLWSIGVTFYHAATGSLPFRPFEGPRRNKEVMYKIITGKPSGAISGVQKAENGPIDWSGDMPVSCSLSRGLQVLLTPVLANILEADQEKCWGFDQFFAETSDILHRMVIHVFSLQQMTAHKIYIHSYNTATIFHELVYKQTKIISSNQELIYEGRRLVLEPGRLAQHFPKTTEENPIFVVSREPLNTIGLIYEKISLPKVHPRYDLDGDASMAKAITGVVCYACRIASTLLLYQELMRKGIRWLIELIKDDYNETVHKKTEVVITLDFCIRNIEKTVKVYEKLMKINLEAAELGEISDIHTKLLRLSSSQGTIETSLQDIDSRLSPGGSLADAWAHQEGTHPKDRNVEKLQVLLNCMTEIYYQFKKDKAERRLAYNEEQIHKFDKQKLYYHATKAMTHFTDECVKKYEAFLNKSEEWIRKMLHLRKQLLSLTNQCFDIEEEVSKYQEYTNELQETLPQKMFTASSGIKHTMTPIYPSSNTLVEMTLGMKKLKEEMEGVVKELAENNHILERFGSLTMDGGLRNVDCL

[6] = tested on: Mus musculus; assay: Inhibition of renal cystogenesis in PKD1 knockout ADPKD (Pkd1 flox/flox; Ksp-Cre) C57BL/6 mouse model assessed as reduction in renal cystic index at 5 mg/kg, SC administered from postnatal day 6 and measured on postnatal day 12 (reference value: 20.0 +/- 1.3 %); type: functional; parameters: scale not given: the % may be the effect or the level left; conditions: time 7 day

Activity [1]: Dose-dependent-effect
DC50 [1]: 351 nM
AUC(0-inf) [4]: 0.14 µM·h
IC50 [5]: 77.4 nM
Structure (SMILES): COc1ccc(C(=O)/C=C/C(=O)N2CCN(CC3CCN(Cc4cccc(Nc5ncc6ccn(CCCNC(=O)C7CCC7)c6n5)c4)CC3)CC2)cc1
Activity [2]: Active
inhibition [3]: Active
Activity [6]: 14%
